Measured values reported in PubChem BioAssay AID1259407 (Chemical Carcinogenesis Research Information System (CCRIS), 2018).
The source made the active and inactive calls. The rule behind the calls is not given here.

Test system: CCRIS mutagenicity, Ames/micronucleus/aberration tests
Experiment: CCRIS mutagenicity studies
[1] = Test System: AMES SALMONELLA TYPHIMURIUM, Strain/Indicator: TA97, Metabolic Activation: NONE, Method: STANDARD PLATE
[2] = Test System: AMES SALMONELLA TYPHIMURIUM, Strain/Indicator: TA97, Metabolic Activation: RAT, LIVER, S-9, AROCLOR 1254, Method: STANDARD PLATE
[3] = Test System: AMES SALMONELLA TYPHIMURIUM, Strain/Indicator: TA98, Metabolic Activation: NONE, Method: STANDARD PLATE
[4] = Test System: AMES SALMONELLA TYPHIMURIUM, Strain/Indicator: TA98, Metabolic Activation: RAT, LIVER, S-9, AROCLOR 1254, Method: STANDARD PLATE
[5] = Test System: AMES SALMONELLA TYPHIMURIUM, Strain/Indicator: TA100, Metabolic Activation: NONE, Method: STANDARD PLATE
[6] = Test System: AMES SALMONELLA TYPHIMURIUM, Strain/Indicator: TA100, Metabolic Activation: RAT, LIVER, S-9, AROCLOR 1254, Method: STANDARD PLATE
[7] = Test System: AMES SALMONELLA TYPHIMURIUM, Strain/Indicator: TA1537, Metabolic Activation: RAT, LIVER, S-9, AROCLOR 1254, Method: STANDARD PLATE
[8] = Test System: AMES SALMONELLA TYPHIMURIUM, Strain/Indicator: TA1538, Metabolic Activation: RAT, LIVER, S-9, AROCLOR 1254, Method: STANDARD PLATE

Row | Compound | mutagenic call [1] | mutagenic call [2] | mutagenic call [3] | mutagenic call [4] | mutagenic call [5] | mutagenic call [6] | mutagenic call [7] | mutagenic call [8] | further results
1 | CC(C)Nc1nc(Cl)nc(NC(C)C)n1 | inactive; negative | inactive; negative | inactive; negative | inactive; negative | inactive; negative | inactive; negative | inactive; negative | inactive; negative | mutagenic call (Test System: AMES SALMONELLA TYPHIMURIUM, Strain/Indicator: TA97A, Metabolic Activation: NONE, Method: STANDARD PLATE): inactive; negative; mutagenic call (Test System: AMES SALMONELLA TYPHIMURIUM, Strain/Indicator: TA97A, Metabolic Activation: RAT, LIVER, S-9, AROCLOR 1254, Method: STANDARD PLATE): inactive; negative; mutagenic call (Test System: AMES SALMONELLA TYPHIMURIUM, Strain/Indicator: TA102, Metabolic Activation: NONE, Method: STANDARD PLATE): inactive; negative; mutagenic call (Test System: AMES SALMONELLA TYPHIMURIUM, Strain/Indicator: TA102, Metabolic Activation: RAT, LIVER, S-9, AROCLOR 1254, Method: STANDARD PLATE): inactive; negative; mutagenic call (Test System: AMES SALMONELLA TYPHIMURIUM, Strain/Indicator: TA1535, Metabolic Activation: NONE, Method: STANDARD PLATE): inactive; negative; mutagenic call (Test System: AMES SALMONELLA TYPHIMURIUM, Strain/Indicator: TA1535, Metabolic Activation: RAT, LIVER, S-9, AROCLOR 1254, Method: STANDARD PLATE): inactive; negative; mutagenic call (Test System: AMES SALMONELLA TYPHIMURIUM, Strain/Indicator: TA1537, Metabolic Activation: NONE, Method: STANDARD PLATE): inactive; negative; mutagenic call (Test System: AMES SALMONELLA TYPHIMURIUM, Strain/Indicator: TA1538, Metabolic Activation: NONE, Method: STANDARD PLATE): inactive; negative
2 | Nc1ncnc2c1ncn2Cc1ccccc1 | inactive; negative | inactive; negative | inactive; negative | active; positive | inactive; negative | inactive; negative |  |  | 
3 | O[C@H]1c2cccc3ccc4cccc(c4c23)[C@@H]1O |  |  |  |  |  |  |  |  | mutagenic call (Test System: AMES SALMONELLA TYPHIMURIUM, Strain/Indicator: TA98, Metabolic Activation: NONE, Method: PREINCUBATION): inactive; negative; mutagenic call (Test System: AMES SALMONELLA TYPHIMURIUM, Strain/Indicator: TA98, Metabolic Activation: RAT, LIVER, S-9, AROCLOR 1254, Method: PREINCUBATION): inactive; negative; mutagenic call (Test System: AMES SALMONELLA TYPHIMURIUM, Strain/Indicator: TA100, Metabolic Activation: NONE, Method: PREINCUBATION): inactive; negative; mutagenic call (Test System: AMES SALMONELLA TYPHIMURIUM, Strain/Indicator: TA100, Metabolic Activation: RAT, LIVER, S-9, AROCLOR 1254, Method: PREINCUBATION): inactive; negative
4 | c1ccc2c(c1)Cc1ccc3ccc4ccccc4c3c1-2 |  |  |  |  |  | inactive; negative |  |  | 
5 | CC(C)=C[C@@H]1[C@@H](C(=O)OCc2coc(Cc3ccccc3)c2)C1(C)C |  |  | inactive; negative | inactive; negative | inactive; negative | inactive; negative |  |  | mutagenic call (Test System: CHINESE HAMSTER V-79, Strain/Indicator: V-79/6-THIOGUANINE, Metabolic Activation: NONE, Method: STANDARD PLATE): inactive; negative; mutagenic call (Test System: CHINESE HAMSTER V-79, Strain/Indicator: V-79/6-THIOGUANINE, Metabolic Activation: RAT HEPATOCYTES, Method: STANDARD PLATE): inactive; negative; mutagenic call (Test System: CHINESE HAMSTER V-79, Strain/Indicator: V-79/OUABAIN, Metabolic Activation: NONE, Method: STANDARD PLATE): inactive; negative; mutagenic call (Test System: CHINESE HAMSTER V-79, Strain/Indicator: V-79/OUABAIN, Metabolic Activation: RAT HEPATOCYTES, Method: STANDARD PLATE): inactive; negative
6 | C1=Cc2c(cc3ccc4cccc5ccc2c3c45)CC1 |  |  |  | active; positive |  |  | active; positive | active; positive | 
